Measured values taken from article PMC4754898, “Discovery of Radioiodinated Monomeric Anthraquinones as a Novel Class of Necrosis Avid Agents for Early Imaging of Necrotic Myocardium” (Scientific Reports, 2016).

How the values were obtained:
[1] = In vitro stability of 131I-anthraquinones in rat serum by TLC; format: in vitro ADME; settings: 37 °C, 24 h
Protocol: Iodogen ([…]-3a, 6a-diphenylglycouracil; Sigma, St. Louis, MO) was dissolved in dichloromethane and deposited on the wall of tubes as a thin film. Radioiodination was initiated by adding dimethylsulfoxide (DMSO) solutions of each anthraquinone (1.25 mg/mL) and Na^131I solutions (4:1, v/v) into Iodogen-coated tube, adjusting pH with phosphate buffered saline (PBS, pH 7.4). Then these mixtures were shaken and incubated at 45 °C for 2–4 h, and radiochemical purity was determined by thin-layer chromatography (TLC) using Whatman No.1 filter paper and 0.1 M hydrochloric acid as the developing solvent. Then the solvent was evaporated, the paper was cut in half and measured the radioactivity by direct γ-counting (WIZARD1470; PerkinElmer, USA). For obtaining the injectants, these mixtures were diluted with propylene glycol and polyethylene glycol 400 (1:1, v/v), respectively.
In vitro stability of eight ^131I-anthraquinones were tested in rat serum, 0.1 mL injectant was added to 0.9 mL rat serum (1:9, v/v) and incubated at 37 °C. Then radiolabeling stability was determined by TLC using the procedure described above at the time points of 0.5 h, 6 h, 12 h and 24 h, respectively.

necrotic muscle [2] = experiment: Biodistribution in mice with muscular necrosis (gamma counting); format: in vivo, Kunming mice; settings: model mice, 0.37 MBq i.v.
Protocol: All animals were given 0.12% potassium iodide in drinking water from 3 days before the experiment till the end of experiment to protect the thyroid gland from taking up free ^131I.
Each mouse was intramuscularly injected with 0.1 mL absolute alcohol in the left hind limb to induce muscular necrosis.
At least 12 h after recovery from surgery, each model mouse was intravenously administrated with 0.37 MBq of ^131I-anthraquinones and each rat was intravenously injected with 3.7 MBq of ^131I-rhein or ^131I-Hyp for pharmacological evaluations. All animals were intravenously administered with 0.1 ml of 1% Evans blue solution for intravital staining of necrosis that helped to selectively sample bluish necrotic tissues for radioactivity quantification.
One hundred and twenty model mice were randomly divided into 24 groups for eight tracers (n = 5 per compound and per time point). Mice were sacrificed by cervical dislocation at 2 h, 12 h and 24 h after administration. Necrotic and normal tissues of interest (blood, thyroid, lung, heart, liver, spleen, stomach, kidney, viable/necrotic muscle) were sampled, and wet weighed with the radioactivity measured by a γ-counter. Background radiation and physical decay were corrected during counting. The results were expressed as percentage of the injected dose per gram of tissue (%ID/g). Ratios of radioactivity concentrations between in necrotic and viable muscle were calculated.

necrotic muscle [3] = experiment: TTC staining and quantitative autoradiography of necrotic and viable muscle; set-up: species or system Kunming mice; settings: mouse, in vivo
Protocol: The necrotic muscles were stained in 2% TTC solution at 37 °C for 15 min and digitally photographed, then cut into 50 μm frozen sections with a cryotome (Shandon FSE, Thermo Fisher Scientific Co., Waltham, MA, USA) for autoradiography. Autoradiographs of these sections were obtained by exposure to a high-performance storage phosphor screen (Cyclone; Canberra-Packard, Ontario, Canada) for 6–48 h and digitally photographed with Optiquant software (Pacard, Packard Meriden, CT, USA). Relative tracer concentrations in necrotic muscles were evaluated by regions of interest analysis and the results were compared with that from the corresponding viable muscles.

[4] = In vitro stability of 131I-rhein in rat serum by radio-HPLC; format: in vitro ADME; settings: 37 °C, 24 h
Protocol: Reversed-phase high performance liquid chromatography (RP-HPLC) was equipped with Waters 2998 PDA detector, HERM LB500 radiometric detector (Berthold Technologies, Germany), a pump (Waters 2695) and a Alltima C18 column (250 × 4.6 mm, 5 μm, GRACE). The mobile phase was methanol/0.1% phosphoric acid in water (80:20, v/v), the flow rate was 1.0 mL/min and the temperature of column was 30 °C. All solvents used for HPLC analysis were HPLC grade.
^131I-rhein was incubated in rat serum at 37 °C for 24 h, and the mixture was mixed with methanol at a ratio of 2:3 and shaken. After centrifuging the mixture at 12000 rpm for 10 min, the supernatant was collected and passed through 0.22-μm pore-size filters (Membrana, Wuppertal, NRW, Germany) for in vitro stability analysis by radio-HPLC as described above.

[5] = Pharmacokinetics (blood clearance) in normal rats; format: in vivo, Sprague-Dawley rats
Protocol: For the pharmacokinetic study, six healthy rats were intravenously injected with ^131I-rhein under anesthesia. The blood samples (10 μL) were collected by means of a tail incision at 5 min, 10 min, 30 min, 1 h, 2 h, 4 h, 6 h, 8 h, 10 h, 12 h and 24 h after administration. The radioactivity of blood samples was measured and the results were expressed as megabecquerel per liter (MBq/L). The blood pharmacokinetic parameters of the radiotracer were analyzed by using the non-compartmental analysis of Drug and Statistics for windows 2.0 software.

necrotic myocardium [6] = experiment: SPECT/CT imaging of rats with reperfused MI or sham operation; format: in vivo, Sprague-Dawley rats; settings: 6 h after administration
infarcted myocardium = experiment: Autoradiography of MI heart sections from model rats; format: in vivo, Sprague-Dawley rats; settings: 50 μm frozen sections
necrotic myocardium [7] = settings: rat, in vivo, iv

## O=C1c2ccccc2C(=O)c2c1ccc([131I])c2O [^131I-1-hydroxyanthraquinone]
[1]
  stability after incubation in rat plasma (TLC): 87.93% ± 0.45%
Necrotic muscle [2]; 2 h after administration
  Blood uptake: 3.19 ± 0.35 %ID/g
  Heart uptake: 0.58 ± 0.06 %ID/g
  Kidney uptake: 1.64 ± 0.17 %ID/g
  Liver uptake: 1.07 ± 0.11 %ID/g
  Lung uptake: 1.12 ± 0.09 %ID/g
  N/V ratio (necrotic muscle/viable muscle): 3.71 ± 0.37
  Necrotic.m (necrotic muscle) uptake: 2.75 ±0.31 %ID/g
  Spleen uptake: 1.04 ± 0.08 %ID/g
  Stomach uptake: 1.40 ± 0.13 %ID/g
  Thyroid uptake: 1.53 ± 0.21 %ID/g
  Viable.m (viable muscle) uptake: 0.74 ± 0.05 %ID/g
Necrotic muscle [2]; 12 h after administration
  Blood uptake: 0.66 ± 0.04 %ID/g
  Heart uptake: 0.11 ± 0.01 %ID/g
  Kidney uptake: 0.37 ± 0.02 %ID/g
  Liver uptake: 0.24 ± 0.03 %ID/g
  Lung uptake: 0.33 ± 0.04 %ID/g
  N/V ratio (necrotic muscle/viable muscle): 4.22 ± 0.02
  Necrotic.m (necrotic muscle) uptake: 0.59 ± 0.05 %ID/g
  Spleen uptake: 0.26 ± 0.02 %ID/g
  Stomach uptake: 0.82 ± 0.09 %ID/g
  Thyroid uptake: 0.46 ± 0.03 %ID/g
  Viable.m (viable muscle) uptake: 0.14 ± 0.01 %ID/g
Necrotic muscle [2]; 24 h after administration
  Blood uptake: 0.07 ± 0.01 %ID/g
  Heart uptake: 0.02 ± 0.00 %ID/g
  Kidney uptake: 0.04 ± 0.01 %ID/g
  Liver uptake: 0.08 ± 0.01 %ID/g
  Lung uptake: 0.05 ± 0.01 %ID/g
  N/V ratio (necrotic muscle/viable muscle): 5.83 ± 0.29
  Necrotic.m (necrotic muscle) uptake: 0.35 ± 0.02 %ID/g
  Spleen uptake: 0.02 ± 0.00 %ID/g
  Stomach uptake: 0.09 ± 0.01 %ID/g
  Thyroid uptake: 0.33 ± 0.04 %ID/g
  Viable.m (viable muscle) uptake: 0.06 ± 0.00 %ID/g
Necrotic muscle [3]
  necrotic/viable muscle ratio by quantitative autoradiography: 9.16 ± 0.78

## O=C(O)c1cc(O)c2c(c1)C(=O)c1ccc([131I])c(O)c1C2=O [^131I-rhein]
[1]
  stability after incubation in rat plasma (TLC): 93.17% ± 0.38%
[4]
  intact parent tracer after incubation in rat serum (radio-HPLC): 91.75% ± 0.47%
Necrotic muscle [2]; 2 h after administration
  Blood uptake: 3.14 ± 0.32 %ID/g
  Heart uptake: 0.47 ± 0.05 %ID/g
  Kidney uptake: 2.68 ± 0.47 %ID/g
  Liver uptake: 2.03 ± 0.21 %ID/g
  Lung uptake: 0.95 ± 0.06 %ID/g
  N/V ratio (necrotic muscle/viable muscle): 5.84 ± 0.10
  Necrotic.m (necrotic muscle) uptake: 4.61 ± 0.39 %ID/g
  Spleen uptake: 0.97 ± 0.13 %ID/g
  Stomach uptake: 1.40 ± 0.16 %ID/g
  Thyroid uptake: 1.56 ± 0.17 %ID/g
  Viable.m (viable muscle) uptake: 0.79 ± 0.08 %ID/g
Necrotic muscle [2]; 12 h after administration
  Blood uptake: 1.20 ± 0.13 %ID/g
  Heart uptake: 0.28 ± 0.03 %ID/g
  Kidney uptake: 2.03 ± 0.12 %ID/g
  Liver uptake: 1.55 ± 0.12 %ID/g
  Lung uptake: 0.62 ± 0.05 %ID/g
  N/V ratio (necrotic muscle/viable muscle): 7.26 ± 0.23
  Necrotic.m (necrotic muscle) uptake: 4.06 ± 0.16 %ID/g
  Spleen uptake: 0.65 ± 0.08 %ID/g
  Stomach uptake: 1.05 ± 0.11 %ID/g
  Thyroid uptake: 0.78 ± 0.07 %ID/g
  Viable.m (viable muscle) uptake: 0.56 ± 0.04 %ID/g
Necrotic muscle [2]; 24 h after administration
  Blood uptake: 0.15 ± 0.01 %ID/g
  Heart uptake: 0.08 ± 0.01 %ID/g
  Kidney uptake: 0.65 ± 0.07 %ID/g
  Liver uptake: 0.49 ± 0.05 %ID/g
  Lung uptake: 0.18 ± 0.03 %ID/g
  N/V ratio (necrotic muscle/viable muscle): 12.33 ± 0.67
  Necrotic.m (necrotic muscle) uptake: 0.74 ± 0.04 %ID/g
  Spleen uptake: 0.29 ± 0.03 %ID/g
  Stomach uptake: 0.09 ± 0.02 %ID/g
  Thyroid uptake: 0.32 ± 0.06 %ID/g
  Viable.m (viable muscle) uptake: 0.06 ± 0.00 %ID/g
Necrotic muscle [3]
  necrotic/viable muscle ratio by quantitative autoradiography: 17.64 ± 1.28
[5]; 6 h
  radioactivity concentration in blood as share of peak radioactivity concentration: 23.47% ± 1.91%
[5]; i.v. 3.7 MBq, blood
  AUC(0 –∞): 211.76 ± 31.18 MBq/L*h
  CLZ (clearance): 0.67 ± 0.17 mL/min/kg
  Cmax: 42.40 ± 5.41 MBq/L
  Tmax: 4.8 ± 0 min
  VZ: 0.42 ± 0.06 L/kg
  t1/2z (elimination half-life): 8.20 ± 0.49 h
[5]; i.v. 3.7 MBq, within 24 h, blood
  AUC(0 –t): 187.46 ± 28.26 MBq/L*h
Necrotic myocardium [6]
  SPECT/CT imaging outcome in the heart: Relatively high uptake as a hot spot showed up in the heart of the model rat
Infarcted myocardium
  activity in infarcted myocardium relative to viable myocardium (autoradiography): 14 fold
Necrotic myocardium [7]
  necrotic/viable myocardium ratio: about 9.81 ± 0.61
Necrotic myocardium [7]; 6 h
  radioactivity concentration in blood: 0.36 ± 0.03 %ID/g
  radioactivity concentration in infarcted myocardium: 1.18 ± 0.03 %ID/g
  radioactivity concentration in kidney: 0.68 ± 0.04 %ID/g
  radioactivity concentration in liver: 0.14 ± 0.01 %ID/g
  radioactivity concentration in lung: 0.24 ± 0.02 %ID/g
  radioactivity concentration in viable myocardium: 0.12 ± 0.01 %ID/g
